Measurements as given in patent publication US20230083717A1, “METHODS AND COMPOSITIONS FOR PROMOTING ADIPOCYTE BEIGING” (Flagship Pioneering Innovations VI, LLC, priority 2021, published 2023).

Test system: UCP1
Assay: in vivo assay of induction of beige adipocytes in visceral and subcutaneous fat depots
Settings: 1 mg/kg intraperitoneal, C57Bl6/J mice, vs control mice
Description: An in vivo assay of induction of beige adipocytes in visceral and subcutaneous fat depots was established using the β3-receptor agonist CL316243. 8-week old male C57Bl6/J mice were dosed with 1 mg/kg CL316243 with intraperitoneal injections, either every day for 1 week or every other day for two weeks. The vehicle was used as a negative control. Following the dosage administration, the mice were sacrificed, and epididymal (visceral) and inguinal (subcutaneous) fat was excised. The expression of UCP1 was assessed in the excised epididymal (visceral) and inguinal (subcutaneous) fat, by western blot and immunohistochemistry. […] The adipose tissue cells in epididymal (visceral) and inguinal (subcutaneous) fat from CL 316234 treated mice were also smaller compared to the cells from control mice (FIG. 3A).

## C[C@H](Cc1ccc2c(c1)OC(C(=O)O)(C(=O)O)O2)NC[C@H](O)c1cccc(Cl)c1 [CL 316234]
  expression of UCP1 by immunohistochemistry in epididymal (visceral) and inguinal (subcutaneous) fat: increased expression of UCP1
  expression of UCP1 by western blot in inguinal and epididymal fat: increased expression of UCP1
  size of adipose tissue cells in epididymal and inguinal fat: smaller
